Data published in patent US20240358693A1, “METHODS OF TREATING PAIN” (Aisa Pharma, Inc., priority 2023, published 2024).

Legend:
participants with SSc-RP [1] = assay: Average daily Raynaud's Condition Score (RCS); assay type: in vivo, human; parameters: key to Average Daily RCS, Mean / Average Daily RCS, Median / Average Daily RCS, Change from Baseline, Mean / Average Daily RCS, Change from Baseline, Median / Average daily RCS, Baseline, Mean / Average daily RCS, Baseline, Median / Mean RCS at baseline: RCS rated on a 0-10 cm VAS scale; conditions: ITT Part A
Description: The RCS is based on how much difficulty participants had with Raynaud's today, how many attacks the participant had, and how long they lasted. In addition participants were and will be asked to consider how much pain, numbness, or other symptoms the Raynaud's caused in fingers (including painful sores), and how much the Raynaud's along affected the use of hand today (VAS 0-10 cm scale).
The absolute change in average daily RCS from baseline to the end of each dosing period was and will be a secondary outcome variable. The sponsor-developed participant-informed diary has been and will be used to record data. The average daily RCS is defined as the total RCS divided by the number of days with available diary data of each dosing period. Total RCS during screening period divided by the number of days with available data will be used as baseline for the analysis of all periods. If there are multiple daily RCS scores, the latest daily RCS will be used. The variable will be calculated similar to frequency data as before.

participants with SSc-RP [2] = assay: Adverse events and serious adverse events (safety, tolerability); assay type: in vivo; conditions: in vivo
Description: An AE is any event, side effect, or other untoward medical occurrence that occurs in conjunction with the use of a medicinal product in humans, whether or not considered to have a causal relationship to this treatment.
Severity of AEs will be graded by the Investigator as one of: • Mild (Grade 1): A type of AE that is usually transient and may require only minimal treatment or therapeutic intervention.
An SAE is an AE occurring during any study phase (i.e., baseline, treatment, washout, or follow-up), and at any dose of the study drug (active or placebo), that fulfills one or more of the following: • Results in death • It is immediately life-threatening • It requires in participant hospitalization or prolongation of existing hospitalization • It results in persistent or significant disability or incapacity • Results in a congenital abnormality or birth defect • It is an important medical event that may jeopardize the participant or may require medical intervention to prevent one of the outcomes listed above.
Treatment-emergent AEs (TEAEs) are defined as AEs that occur or worsen after the dose of study drug. If the timing of the start of an AE could not be determined unambiguously from the start or end dates provided, it will be assumed to be a TEAE. An AE is considered related if the relationship to either of the study drug has been indicated as possibly or probably or definite related by the investigator. An AE leading to study withdrawal is defined as an AE that cause a subject early terminated from the study. AEs will be identified as emerging in the following parts: • TEAEs for Part A will be those that started during Part A (i.e., from the first dose in Part A to end of follow up of Part A). • TEAEs for Part B will be those that started during Part B (i.e., from the first dose in Part B to end of follow-up of Part B).
Adverse events were coded using the most current version of the MedDRA® Version 22.0 or higher. The analysis of AEs was based on the concept of treatment emergent AEs. Treatment emergent AEs were tabulated by treatment group and included the number of participants for whom the event occurred, the severity, and relationship to study drug. Treatment emergent AEs (TEAEs) leading to discontinuation and SAEs with onset after the start of study drug were also summarized. All AEs and SAEs (including those with onset or worsening before the start of study drug) through the end of the study were listed.

[3] = excluding outliers, dose Cilnidipine 10 mg, Tadalafil 5 mg, or 10 mg + 5 mg

CN1CC(=O)N2[C@H](c3ccc4c(c3)OCO4)c3[nH]c4ccccc4c3C[C@@H]2C1=O [Tadalafil, tadalafil]
Average Daily RCS (dosing period), Mean (participants with SSc-RP [1]; [3]): 4.46 | Average Daily RCS (dosing period), Median (participants with SSc-RP [1]; [3]): 4.46 | Average Daily RCS, Change from Baseline, Mean (participants with SSc-RP [1]; [3]): −1.58 | Average Daily RCS, Change from Baseline, Median (participants with SSc-RP [1]; [3]): −1.58 | Average Daily RCS, Percent Change from Baseline, Mean (participants with SSc-RP [1]; [3]): −26.18% | Average Daily RCS, Percent Change from Baseline, Median (participants with SSc-RP [1]; [3]): −26.18% | Average daily RCS, Baseline, Mean (participants with SSc-RP [1]; [3]): 6.04 | Average daily RCS, Baseline, Median (participants with SSc-RP [1]; [3]): 6.04 | Average Daily RCS, Change from Baseline, Mean (participants with SSc-RP [1]; Tadalafil 5 mg): −0.67 | Average Daily RCS, Change from Baseline, Median (participants with SSc-RP [1]; Tadalafil 5 mg): −0.67 | Average Daily RCS, Percent Change from Baseline, Mean (participants with SSc-RP [1]; Tadalafil 5 mg): −11.76% | Average Daily RCS, Percent Change from Baseline, Median (participants with SSc-RP [1]; Tadalafil 5 mg): −11.76% | Average Daily RCS, Mean (participants with SSc-RP [1]; Tadalafil 5 mg, dosing period): 7.05 | Average Daily RCS, Median (participants with SSc-RP [1]; Tadalafil 5 mg, dosing period): 7.05 | Safety: worst AE by group (participants with SSc-RP [2]): Worst AE in tadalafil
